From PubChem BioAssay (NCI)
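Five compound concentrations were applied to cells in 96-well plates for 48 hours; endpoints were derived by simple linear interpolation of the resulting dose-response curve. The concentration for 50% growth inhibition is given as GI50. Definition used: TGI = concentration required for complete inhibition of growth.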

Legend:
Experiment in all cases: inhibition of tumour cell growth, NCI panel, 48 h
[1] = test system: NCI-H226 lung
[2] = test system: K-562 leukemia
[3] = test system: ACHN renal
[4] = test system: NCI-H460 lung
[5] = test system: SNB-19 CNS
[6] = test system: MDA-MB-435
[7] = test system: HCC-2998 colon
[8] = test system: OVCAR-5 ovarian
[9] = test system: SK-MEL-2 melanoma
[10] = test system: KM12 colon
[11] = test system: OVCAR-4 ovarian
[12] = test system: SK-MEL-28 melanoma
[13] = test system: UO-31 renal
[14] = test system: HS 578T breast
[15] = test system: PC-3 prostate
[16] = test system: EKVX NSCLC
[17] = test system: RPMI-8226 leukemia
[18] = test system: NCI/ADR-RES ovarian
[19] = test system: NCI-H23 lung
[20] = test system: CCRF-CEM leukemia
[21] = test system: UACC-257 melanoma
[22] = test system: U251 CNS
[23] = test system: SN12C renal
[24] = test system: HCT-116 colon
[25] = test system: UACC-62 melanoma
[26] = test system: RXF 393 renal
[27] = test system: SR leukemia
[28] = test system: SF-539 CNS
[29] = test system: DU-145 prostate
[30] = test system: A549 NSCLC
[31] = test system: SNB-75 CNS
[32] = test system: HOP-62 NSCLC
[33] = test system: MOLT-4 leukemia
[34] = test system: NCI-H522 lung
[35] = test system: MCF7 breast
[36] = test system: SF-268 CNS
[37] = test system: T-47D breast
[38] = test system: SW-620 colon
[39] = test system: OVCAR-8 ovarian
[40] = test system: A498 renal
[41] = test system: OVCAR-3 ovarian
[42] = test system: CAKI-1 renal
[43] = test system: IGROV1 ovarian
[44] = test system: HT29 colon
[45] = test system: MALME-3M melanoma
[46] = test system: HL-60(TB) leukemia
[47] = test system: COLO 205 colon
[48] = test system: MDA-MB-231 breast
[49] = test system: TK-10 renal
[50] = test system: LOX IMVI melanoma
[51] = test system: SF-295 CNS
[52] = test system: HOP-92 NSCLC
[53] = test system: M14 melanoma
[54] = test system: HCT-15 colon
[55] = test system: SK-MEL-5 melanoma
[56] = test system: BT-549 breast
[57] = test system: 786-0 renal
[58] = test system: SK-OV-3 ovarian

## O=C(C[Si](CC(=O)c1cccc(C(F)(F)F)c1)CC(=O)c1cccc(C(F)(F)F)c1)c1cccc(C(F)(F)F)c1
[1]
  GI50: 2.11 µM
  TGI: 5.3 µM
[2]
  GI50: 3.57 µM
  TGI: 13.4 µM
[3]
  GI50: 2 µM
  TGI: 4.94 µM
[4]
  GI50: 3.18 µM
  TGI: 10.4 µM
[5]
  GI50: 3.88 µM
  TGI: 13.4 µM
[6]
  GI50: 3.27 µM
  TGI: 10.4 µM
[7]
  GI50: 3.46 µM
  TGI: 15 µM
[8]
  GI50: 2.19 µM
  TGI: 6.51 µM
[9]
  GI50: 2.28 µM
  TGI: 5.29 µM
[10]
  GI50: 3.25 µM
  TGI: 10.1 µM
[11]
  GI50: 3.12 µM
  TGI: 12.1 µM
[12]
  GI50: 3.51 µM
  TGI: 13.6 µM
[13]
  GI50: 3.2 µM
  TGI: 14.2 µM
[14]
  GI50: 4.51 µM
  TGI: 25.9 µM
[15]
  GI50: 3.11 µM
  TGI: 11 µM
[16]
  GI50: 3.1 µM
  TGI: 11.5 µM
[17]
  GI50: 2.12 µM
  TGI: 5.71 µM
[18]
  GI50: 3.75 µM
  TGI: 15.4 µM
[19]
  GI50: 3.27 µM
  TGI: 15.6 µM
[20]
  GI50: 3.1 µM
  TGI: 10.6 µM
[21]
  GI50: 2.65 µM
  TGI: 6.38 µM
[22]
  GI50: 3.27 µM
  TGI: 10.4 µM
[23]
  GI50: 3.03 µM
  TGI: 10.1 µM
[24]
  GI50: 2.41 µM
  TGI: 8.87 µM
[25]
  GI50: 2.23 µM
  TGI: 6.28 µM
[26]
  GI50: 2.07 µM
  TGI: 4.3 µM
[27]
  GI50: 2.72 µM
  TGI: 7.19 µM
[28]
  GI50: 1.85 µM
  TGI: 3.85 µM
[29]
  GI50: 4.43 µM
  TGI: 14.8 µM
[30]
  GI50: 3.39 µM
  TGI: 11.3 µM
[31]
  GI50: 2.42 µM
  TGI: 8.81 µM
[32]
  GI50: 3.44 µM
  TGI: 12 µM
[33]
  GI50: 2.81 µM
  TGI: 8.24 µM
[34]
  GI50: 2.6 µM
  TGI: 9.01 µM
[35]
  GI50: 3.05 µM
  TGI: 11.5 µM
[36]
  GI50: 3.8 µM
  TGI: 13.9 µM
[37]
  GI50: 4.48 µM
  TGI: 13.9 µM
[38]
  GI50: 3.23 µM
  TGI: 13.3 µM
[39]
  GI50: 3.48 µM
  TGI: 10.9 µM
[40]
  GI50: 2.34 µM
  TGI: 9.62 µM
[41]
  GI50: 3.32 µM
  TGI: 10.5 µM
[42]
  GI50: 3.39 µM
  TGI: 12.9 µM
[43]
  GI50: 6.24 µM
  TGI: 27.8 µM
[44]
  GI50: 2.55 µM
  TGI: 12 µM
[45]
  GI50: 4.03 µM
  TGI: 17.4 µM
[46]
  GI50: 2.52 µM
  TGI: 5.99 µM
[47]
  GI50: 1.67 µM
  TGI: 3.07 µM
[48]
  GI50: 2.3 µM
  TGI: 4.73 µM
[49]
  GI50: 3.52 µM
  TGI: 14.1 µM
[50]
  GI50: 2.94 µM
  TGI: 11.4 µM
[51]
  GI50: 2.88 µM
  TGI: 11.2 µM
[52]
  GI50: 2.15 µM
  TGI: 6.43 µM
[53]
  GI50: 3.16 µM
  TGI: 10.1 µM
[54]
  GI50: 2.06 µM
  TGI: 6.25 µM
[55]
  GI50: 1.63 µM
  TGI: 3.03 µM

## CCCCCCNC(=O)Nc1ccc2cc3ccc(NC(=O)NCCCCCC)cc3nc2c1
[1]
  GI50: 4.95 µM
  TGI: > 100 µM
[3]
  GI50: 43.5 µM
  TGI: > 100 µM
[5]
  GI50: 1.73 µM
  TGI: 3.36 µM
[6]
  GI50: 0.406 µM
  TGI: 1.51 µM
[9]
  GI50: 1.9 µM
  TGI: 4.01 µM
[12]
  GI50: 1.72 µM
  TGI: 3.14 µM
[13]
  GI50: > 100 µM
  TGI: > 100 µM
[16]
  GI50: 5.79 µM
  TGI: > 100 µM
[18]
  GI50: 83.7 µM
  TGI: > 100 µM
[20]
  GI50: 0.258 µM
  TGI: 0.714 µM
[22]
  GI50: 0.336 µM
  TGI: 1.29 µM
[23]
  GI50: 1.08 µM
  TGI: 2.51 µM
[24]
  GI50: 0.358 µM
  TGI: 1.25 µM
[25]
  GI50: 1.21 µM
  TGI: 2.53 µM
[26]
  GI50: 1.4 µM
  TGI: 5.51 µM
[27]
  GI50: 0.284 µM
  TGI: 1.27 µM
[28]
  GI50: 1.58 µM
  TGI: 3 µM
[29]
  GI50: 2 µM
  TGI: > 100 µM
[31]
  GI50: 1.45 µM
  TGI: 3.16 µM
[32]
  GI50: 1.81 µM
  TGI: 4.88 µM
[35]
  GI50: 0.396 µM
  TGI: 1.57 µM
[36]
  GI50: 1.2 µM
  TGI: 2.96 µM
[56]
  GI50: 4.09 µM
  TGI: > 100 µM
[39]
  GI50: 0.614 µM
  TGI: 2.88 µM
[40]
  GI50: 1.88 µM
  TGI: > 28.7 µM
[42]
  GI50: > 26.5 µM
  TGI: > 100 µM
[44]
  GI50: 2.24 µM
  TGI: > 100 µM
[57]
  GI50: 2.52 µM
  TGI: > 26.6 µM
[45]
  GI50: 1.63 µM
  TGI: 3.12 µM
[48]
  GI50: 1.54 µM
  TGI: 3.11 µM
[49]
  GI50: 23.5 µM
  TGI: > 100 µM
[50]
  GI50: 0.268 µM
  TGI: 0.737 µM
[51]
  GI50: 2.32 µM
  TGI: 6.04 µM
[52]
  GI50: 1.67 µM
  TGI: 4.07 µM
[54]
  GI50: > 100 µM
  TGI: > 100 µM

## CC1(C)C(=O)/C(=C\c2ccccn2)C[C@]2(C)[C@H]3CC[C@@H]4[C@@H](C(=O)/C=C/c5ccccn5)CC[C@@]4(C)[C@]3(C)CC[C@@H]12
[1]
  GI50: 1.8 µM
  TGI: 4.85 µM
[2]
  GI50: 0.347 µM
  TGI: > 100 µM
[3]
  GI50: 0.479 µM
  TGI: 1.69 µM
[4]
  GI50: 1.97 µM
  TGI: 4.2 µM
[6]
  GI50: 0.296 µM
  TGI: 0.885 µM
[7]
  GI50: 1.8 µM
  TGI: 3.49 µM
[10]
  GI50: 1.67 µM
  TGI: 3.21 µM
[11]
  GI50: 2.41 µM
  TGI: > 100 µM
[13]
  GI50: 0.787 µM
  TGI: 2.1 µM
[18]
  GI50: 1.47 µM
  TGI: 5.93 µM
[19]
  GI50: 2 µM
  TGI: 4.63 µM
[21]
  GI50: 1.64 µM
  TGI: 5.47 µM
[22]
  GI50: 0.749 µM
  TGI: 2.08 µM
[24]
  GI50: 0.263 µM
  TGI: 0.795 µM
[25]
  GI50: 1.19 µM
  TGI: 2.58 µM
[26]
  GI50: 0.859 µM
  TGI: 2.26 µM
[27]
  GI50: 0.342 µM
  TGI: 2.11 µM
[29]
  GI50: 1.76 µM
  TGI: 3.23 µM
[30]
  GI50: 2.02 µM
  TGI: > 28.2 µM
[32]
  GI50: 2.14 µM
  TGI: 5.82 µM
[33]
  GI50: 0.537 µM
  TGI: > 100 µM
[34]
  GI50: 2.01 µM
  TGI: 4.52 µM
[35]
  GI50: 0.405 µM
  TGI: 3.89 µM
[56]
  GI50: 1.38 µM
  TGI: 4.26 µM
[39]
  GI50: 0.493 µM
  TGI: > 100 µM
[40]
  GI50: 1.67 µM
  TGI: 3.11 µM
[41]
  GI50: 0.538 µM
  TGI: 1.85 µM
[44]
  GI50: 1.05 µM
  TGI: 3.46 µM
[57]
  GI50: 1.2 µM
  TGI: 2.77 µM
[58]
  GI50: 3.89 µM
  TGI: > 100 µM
[46]
  GI50: 0.486 µM
  TGI: 3.95 µM
[47]
  GI50: 1.76 µM
  TGI: 4.38 µM
[48]
  GI50: 0.532 µM
  TGI: 2.53 µM
[50]
  GI50: 0.232 µM
  TGI: 0.565 µM
[53]
  GI50: 0.907 µM
  TGI: 3.14 µM
[55]
  GI50: 1.51 µM
  TGI: 2.89 µM
